# Measurements taken from patent US8288372B2, “Method for treating headache with loxapine” (Alexza Pharmaceuticals, Inc., priority 2002, dated 2012).
# Read-outs that look alike come from different tables or passages of the source. Marks after values point to notes of the source that are not given here.
# Assays:
# [1] = test system: Male mice; assay: Mouse writhing test (acetic acid 0.5% i.p.); conditions: for Effect on the number of writhes induced by acetic acid: five doses i.p.; for Dose from which the number of writhes was significantly decreased: Mann Whitney U test vs vehicle
# Protocol: Male mice weighing 23-28 g were used in this test. Mice were injected with acetic acid (0.5% i.p.). This treatment induces a recognizable writhing response in control animals. The number of writhes is counted for 10 minutes beginning 5 minutes after injection of acetic acid. Ten mice were studied per group. The test was performed blind. Loxapine and amoxapine (dispersed in 0.2% hydroxypropylmethylcellulose, then dissolved in saline) were evaluated at five doses, administered i.p. 30 minutes before acetic acid, and compared with a vehicle control (0.2% hydroxypropylmethylcellulose in saline) group. Dosage rates for loxapine were 0.125, 0.25, 0.5, 1 and 2 mg/kg. Dosage rates for amoxapine were 1, 2, 4, 8 and 16 mg/kg. […] The data were analyzed by comparing the treated groups with the vehicle control using Mann Whitney U tests.
# [2] = cited from earlier work
# [3] = test system: animal model; conditions: chronic administration of amoxapine alone; cited from earlier work
# [4] = Toxicokinetic analysis of loxapine plasma concentration after aerosol inhalation; format: in vivo, beagle dogs
# Protocol: On the first day of the repeat dose (5 day) portion of the study, plasma samples were collected for toxicokinetic analysis prior to dosing, 2 minutes after the onset of dosing, immediately after dosing, 20 minutes and 1, 3, 9 and 24 hours post dosing. Samples were stored at −80° C. until loxapine plasma concentration analysis. Loxapine plasma concentration can be measured using analytical methods well known in the art, such as LC/MS, LC/MS/MS, and/or GC/MS. […] The rate of rise in loxapine plasma concentration is found to average at least 70 ng/mL/minute at the 2 mg/kg dose level over the first 2 minutes of dosing, and 20 ng/mL/minute at the 2 mg/kg dose level over the first 10 minutes of dosing. The rate of rise in loxapine plasma concentration is found to average at least 7 ng/mL/minute at the 0.2 mg/kg dose level over the first 2 minutes of dosing, and 2 ng/mL/minute at the 0.2 mg/kg dose level over the first 10 minutes of dosing. Therapeutic plasma levels of approximately at least 0.5 ng/mL, 1 ng/mL, 2 ng/mL, 4 ng/mL, 8 ng/mL, or even 15 ng/mL are obtained within 10 minutes, 5 minutes, and even within 2 minutes at both dose levels.
# [5] = test system: subjects with a history of moderate to severe migraine headache; assay: Phase II clinical trial of loxapine for the treatment of acute migraine attacks; format: in vivo, human
# From the text: The study methodology is a double-blind, randomized, placebo-controlled dose-ranging trial. Healthy male and female subjects 18 to 65 years of age, inclusive, with a history of moderate to severe migraine headache by self-report (migraine with or without aura) with average frequency of 1-6 attacks per month during the past 3 months are recruited to participate in the study. Those subjects meeting entry criteria are enrolled and randomized to receive one of the following treatments: placebo, loxapine rapid delivery system ˜1.25 mg, loxapine rapid delivery system ˜2.5 mg, loxapine rapid delivery system ˜5 mg, loxapine rapid delivery system ˜10 mg. Higher loxapine doses may also be tested if found safe in a Phase I clinical trial. The loxapine rapid delivery system is a means of delivering loxapine to a migraine patient such that maximum plasma drug concentrations are obtained within 1 hour, 30 minutes, 15 minutes, 10 minutes, 5 minutes, or even 2 minutes or less. The condensation aerosol delivery system described above with respect to a Phase I clinical trial is one such system. Other rapid delivery systems include various durations of intravenous infusions or injections.
# Immediately prior to receiving the treatment to which the patient has been randomized, the patient rates their severity of headache and nausea on a 4-point scale (0—absent, 1—mild, 2—moderate, 3—severe) and photophobic and phonophobia on a 2-point scale (Does light make your headache worse? 0—No, 1—Yes; Does noise make your headache worse? O—No, 1—Yes). Alternatively, an 11-point visual-analogue scale (0—none to 10—maximally severe) or other appropriate scale can be used. Subjects are asked to repeat these ratings at timepoints of 15 and 30 minutes following treatment, and also at 1, 2, 4, 8, 12 and 24 hours post treatment. Subjects are further asked for their global assessment of treatment efficacy (1—very poor to 5—very good) at 120 minutes and 24 hours post treatment. Concomitant medications, if any, are also recorded.
# [6] = test system: person with migraine headache; assay: Clinical use of loxapine tablet for an acute migraine attack; format: in vivo, human; conditions: 25 mg tablet by mouth
# Protocol: A person in generally good health notes onset of moderate pain localizing to the right side of their head over approximately 10 minutes while at home. Over the next 10 minutes, the pain becomes more severe, characterized by throbbing. The person recognizes this as a migraine headache, and also knows that for their such headaches, when untreated, tend to persist for at least a full day with nausea accompanying the headache pain and with the pain so severe as to render sleeping difficult or impossible. The person turns down the lights in their living room to avoid the pain caused by bright light entering their eyes, and turns off the radio, because noise from the radio was worsening their headache pain. They take a 25 mg loxapine tablet by mouth with a glass of water. Over the next 15 minutes, the headache pain begins to […], and the person's stomach is mildly upset. […] Their stomach no longer bothers them. […] Light and sound are no longer bothersome. They eat a normal meal without stomach upset.
# [7] = test system: Beagle Dog; conditions: in vivo
# [8] = 1 mg/kg i.p. 30 minutes before acetic acid, first or second experiment
# [9] = 2 mg/kg i.p. 30 minutes before acetic acid, first or second experiment
smiles,measurement,setting,value
"Clc1ccc2c(c1)C(N1CCNCC1)=Nc1ccccc1O2 [Amoxapine, 2-chloro-11(1-piperazinyl)dibenz(b,f) (1,4) oxazepine]","Reduction in acetic acid writhing, percentage of control vehicle pretreatment",[1]; [8],−23% NS
same,"Reduction in acetic acid writhing, percentage of control vehicle pretreatment",[1]; [9],−39% *
same,"Reduction in acetic acid writhing, percentage of control vehicle pretreatment","[1]; 4 mg/kg i.p. 30 minutes before acetic acid, first or second experiment",−71% ***
same,"Reduction in acetic acid writhing, percentage of control vehicle pretreatment","[1]; 8 mg/kg i.p. 30 minutes before acetic acid, first or second experiment",−93% ***
same,"Reduction in acetic acid writhing, percentage of control vehicle pretreatment",[1]; 16 mg/kg i.p. 30 minutes before acetic acid,−100% ***
same,Effect on the number of writhes induced by acetic acid,[1],dose-dependently decreased the number of writhes
same,Dose from which a clear / marked effect on writhing was observed,[1]; i.p.,≥ 4 mg/kg
same,Dose from which the number of writhes was significantly decreased,[1]; i.p.,≥ 2 mg/kg
same,Dose from which sedation was observed,"[1]; male, mouse, in vivo, ip",≥ 2 mg/kg
same,Cmax,[2]; lowest used oral dose 50 mg (Jue et al. 1982),~30 ng/mL
same,Cmax,[2]; oral 100 mg (Calvo et al. 1985),~50 ng/mL
same,Tmax after oral administration,[2]; oral 100 mg,~1.5 h
same,Blood levels after repeated dosing,[2]; repeated amoxapine dosing (Calvo et al. 1985),30 to 300 ng/mL
same,Latency of the tail-flick,[3],no change
"CN1CCN(C2=Nc3ccccc3Oc3ccc(Cl)cc32)CC1 [Loxapine, 2-chloro-11(4-methyl-1-piperazinyl)dibenz(b,f) (1,4) oxazepine]","Reduction in acetic acid writhing, percentage of control vehicle pretreatment",[1]; 0.125 mg/kg i.p. 30 minutes before acetic acid,−57% **
same,"Reduction in acetic acid writhing, percentage of control vehicle pretreatment",[1]; 0.25 mg/kg i.p. 30 minutes before acetic acid,−90% ***
same,"Reduction in acetic acid writhing, percentage of control vehicle pretreatment",[1]; [8],−100% ***
same,"Reduction in acetic acid writhing, percentage of control vehicle pretreatment",[1]; [9],−99% ***
same,Effect on the number of writhes induced by acetic acid,[1],dose-dependently decreased the number of writhes
same,Dose from which a clear / marked effect on writhing was observed,[1]; i.p.,≥ 0.25 mg/kg
same,Dose from which the number of writhes was significantly decreased,[1]; i.p.,≥ 0.125 mg/kg
same,Dose from which sedation was observed,"[1]; i.p., mice",≥ 0.25 mg/kg
same,Average rate of rise in loxapine plasma concentration,"[4]; 0.2 mg/kg, first 2 minutes of dosing",at least 7 ng/mL/minute
same,Average rate of rise in loxapine plasma concentration,"[4]; 0.2 mg/kg, first 10 minutes of dosing",≥ 2 ng/mL/min
same,Average rate of rise in loxapine plasma concentration,"[4]; 2 mg/kg, first 2 minutes of dosing",at least 70 ng/mL/minute
same,Average rate of rise in loxapine plasma concentration,"[4]; 2 mg/kg, first 10 minutes of dosing",≥ 20 ng/mL/min
same,Time to peak plasma concentration after end of drug inhalation,"[4]; aerosol inhalation, first day of repeat dose",≤ 2 min
same,Therapeutic effect of the drug,"[5]; 5 mg and 10 mg, rapid delivery system, within 1 hour",strong therapeutic effect
same,Severity of headache in treated patients,"[5]; 5 mg and 10 mg, at 1 hour, even 30 minutes, sometimes 15 minutes",markedly lower than prior to treatment
same,Headache relief versus placebo,"[5]; 5 mg or 10 mg, at 1 hour, statistically significant at p<0.05 assuming large sample",marked advantage
same,Persistence of advantage versus placebo,"[5]; 5 mg or 10 mg, unless placebo patients get rescue medication","persists at 2 hours, 4 hours, 8 hours, and even 24 hours"
same,Signs of headache after brief nap,[6],without any signs of headache
same,Return of headache,[6]; no further medication,does not return over the next 72 hours
same,Headache pain,[6]; over the 1 hour following the first 15 minutes,diminishes slowly
same,Food consumption,[7],roughly normal
same,Gross pathology findings at necropsy,[7],No treatment related findings
same,Histopathological examination of gross lesions,[7],no treatment related findings
same,"Histopathological examination of larynx, trachea, mainstem bronchi, lungs including bronchi",[7],No treatment related abnormalities
same,"Signs of bronchoconstriction (wheezing, prolonged expiratory phase, cough)",[7],no signs of bronchoconstriction
same,Cmax for loxapine only,"[2]; oral dose of 25 mg, a different study",10 to 12 ng/mL
same,Tmax after oral administration,"[2]; oral, manufacturer studies (Lederle Laboratories)",2 to 3 h
